From patent US12581252B2, “Substituted pyrrolo[3,4-b]pyridines as PI3K-α inhibitors” (Relay Therapeutics, Inc., priority 2020, dated 2026) come the findings set out here.

As a reminder, the IC50 is the concentration that gives 50% inhibition. A higher IC50 goes with lower potency.

In this test the target is H1047R PIK3CA enzyme (Homo sapiens, UniProt P42336, H1047R). The experiment in a line: ADP-Glo Biochemical PIK3CA Kinase Assay. How it is done: Compounds to be assayed were plated in 16 doses of 1:2 serial dilutions (20 nL volume each well) on a 1536-well plate, and the plate warmed to room temperature. […] To the well was added 1 μL of 200 μM ATP and 20 μM of diC8-PIP2 in Substrate Assay Buffer (50 mM HEPES pH7.4, 50 mM NaCl, 5 mM DTT and 0.03% CHAPS) to start the reaction, and the plate was shaken for 10 seconds, then spun briefly at 1500 rpm, and then incubated for 60 minutes at room temperature. The reaction was stopped by adding 2 μL of ADP-Glo reagent (Promega), and spinning briefly at 1500 rpm, and then incubating for 40 minutes. ADP-Glo Detection reagent (Promega) was added and the plate spun briefly at 1500 rpm, then incubated for 30 minutes.
Sequence of H1047R PIK3CA enzyme (P42336 whole entry H1047R): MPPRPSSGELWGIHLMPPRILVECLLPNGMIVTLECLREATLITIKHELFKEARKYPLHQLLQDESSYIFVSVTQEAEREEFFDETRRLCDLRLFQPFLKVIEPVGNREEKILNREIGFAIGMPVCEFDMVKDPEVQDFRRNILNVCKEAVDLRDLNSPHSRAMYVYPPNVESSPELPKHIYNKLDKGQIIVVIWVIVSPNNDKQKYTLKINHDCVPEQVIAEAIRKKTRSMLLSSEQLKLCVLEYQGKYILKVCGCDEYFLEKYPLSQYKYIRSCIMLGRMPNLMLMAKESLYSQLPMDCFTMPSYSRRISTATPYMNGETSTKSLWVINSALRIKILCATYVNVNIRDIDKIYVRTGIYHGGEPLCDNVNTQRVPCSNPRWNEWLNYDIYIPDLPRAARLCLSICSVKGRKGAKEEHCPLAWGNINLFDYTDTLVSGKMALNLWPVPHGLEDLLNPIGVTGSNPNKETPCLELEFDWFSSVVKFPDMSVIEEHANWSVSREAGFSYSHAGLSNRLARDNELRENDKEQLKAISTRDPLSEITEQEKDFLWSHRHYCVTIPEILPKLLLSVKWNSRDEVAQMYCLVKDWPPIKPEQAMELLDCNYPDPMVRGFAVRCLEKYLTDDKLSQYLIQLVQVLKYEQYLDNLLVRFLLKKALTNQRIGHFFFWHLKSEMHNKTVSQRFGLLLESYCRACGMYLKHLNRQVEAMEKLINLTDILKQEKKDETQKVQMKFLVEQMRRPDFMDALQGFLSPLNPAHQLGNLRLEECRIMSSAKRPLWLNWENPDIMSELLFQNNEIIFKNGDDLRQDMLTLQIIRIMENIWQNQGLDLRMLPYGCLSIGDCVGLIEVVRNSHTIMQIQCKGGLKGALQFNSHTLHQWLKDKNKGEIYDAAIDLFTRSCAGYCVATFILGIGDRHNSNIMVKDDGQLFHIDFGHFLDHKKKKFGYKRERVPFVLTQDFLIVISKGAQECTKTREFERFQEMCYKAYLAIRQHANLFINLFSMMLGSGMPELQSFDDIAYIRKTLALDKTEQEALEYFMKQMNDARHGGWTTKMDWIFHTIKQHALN
Sequence of H1047R PIK3CA enzyme (P27986 whole entry partner): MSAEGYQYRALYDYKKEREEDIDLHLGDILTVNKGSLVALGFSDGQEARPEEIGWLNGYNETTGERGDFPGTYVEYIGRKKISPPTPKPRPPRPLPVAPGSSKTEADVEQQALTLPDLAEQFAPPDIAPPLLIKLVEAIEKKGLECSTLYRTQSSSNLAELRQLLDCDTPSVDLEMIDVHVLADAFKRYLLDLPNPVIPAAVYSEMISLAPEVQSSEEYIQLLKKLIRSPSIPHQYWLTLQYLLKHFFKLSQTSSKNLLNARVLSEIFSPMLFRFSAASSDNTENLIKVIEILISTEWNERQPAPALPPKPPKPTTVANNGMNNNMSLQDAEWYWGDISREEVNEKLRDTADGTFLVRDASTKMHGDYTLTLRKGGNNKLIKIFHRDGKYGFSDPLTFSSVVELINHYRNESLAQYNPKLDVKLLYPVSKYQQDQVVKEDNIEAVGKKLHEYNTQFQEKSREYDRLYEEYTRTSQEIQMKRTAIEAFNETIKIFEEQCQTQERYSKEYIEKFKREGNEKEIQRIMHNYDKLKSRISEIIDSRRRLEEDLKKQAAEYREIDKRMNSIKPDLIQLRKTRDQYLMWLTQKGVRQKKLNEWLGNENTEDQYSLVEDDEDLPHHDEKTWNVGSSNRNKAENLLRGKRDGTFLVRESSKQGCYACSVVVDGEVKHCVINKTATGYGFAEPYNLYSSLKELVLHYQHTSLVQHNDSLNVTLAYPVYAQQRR
In general terms: ADP-Glo first removes unused ATP, then detects ADP through luciferase.
`O=C(Nc1cc(Br)cc2c1[C@@H](c1cc(F)ccc1Cl)NC2=O)N[C@]1(CC(F)(F)F)CCCOC1` (racemic) [Compound I-1961]: the IC50 is 10 to 100 µM.

Regarding `O=C1N[C@@H](c2cc(F)ccc2Cl)c2c(N[C@H]3CCOc4ccccc43)cc(Br)cc21` (racemic) [Compound I-2013], the IC50 lay within 10 to 100 µM.

Regarding `O=C1N[C@@H](c2cc(F)ccc2Cl)c2c(N[C@@H]3CCOc4ccccc43)cc(Br)cc21` (racemic) [Compound I-2014], the IC50 lay within 10 to 100 µM.

The compound `O=C1N[C@H](c2cc(F)ccc2Cl)c2c(N[C@H]3CCCNC3)cc(-c3ccc4ncnn4c3)cc21` (racemic) [Compound I-2023] returned a 50% inhibitory concentration (IC50) of 10 to 100 µM.

As for `O=C(Nc1cccc2c1[C@H]([C@@H]1CCCCC1=O)NC2=O)c1cc(F)cc(C(F)(F)F)c1` (racemic) [Compound I-2036], the IC50 lay in the range of 10 to 100 µM.

In turn, `O=C(Nc1cccc2c1[C@@H](C13C[C@H]4C[C@@H](C1)C[C@@H](C3)C4)NC2=O)c1cc(F)cc(C(F)(F)F)c1` (racemic) [Compound I-2074] showed a half-maximal inhibitory concentration (IC50) of 10 to 100 µM.

For the compound `O=C(Nc1cccc2c1[C@H](C13C[C@H]4C[C@@H](C1)C[C@@H](C3)C4)NC2=O)c1cc(F)cc(C(F)(F)F)c1` (racemic) [Compound I-2075], the IC50 lay in the range of 1 to 10 µM.

Compound `O=C1N[C@@H](c2cc(F)ccc2Cl)c2c(NC(=O)N3C[C@H](O)C[C@@H]3CC(F)(F)F)cccc21` (racemic) [Compound I-2162] showed an IC50 of 1 to 10 µM.

`O=C1N[C@H](c2cc(F)ccc2Cl)c2c(NC(=O)N3C[C@H](O)C[C@@H]3CC(F)(F)F)cccc21` (racemic) [Compound I-2163] gave an IC50 of 10 to 100 µM.

For the compound `O=C1N[C@@H](c2cc(F)ccc2Cl)c2c(NC(=O)N3C[C@@H](O)C[C@@H]3CC(F)(F)F)cccc21` (racemic) [Compound I-2164], the IC50 is 1 to 10 µM.

The compound `O=C1N[C@H](c2cc(F)ccc2Cl)c2c(NC(=O)N3C[C@@H](O)C[C@@H]3CC(F)(F)F)cccc21` (racemic) [Compound I-2165] registered an IC50 of 10 to 100 µM.

In the case of `O=C1N[C@H](c2cc(F)ccc2Cl)c2c(Nc3cn[nH]c3)cc(Br)cc21` (racemic) [Compound I-2183], the 50% inhibitory concentration (IC50) lay within 10 to 100 µM.

`O=C(Nc1cccc2c1[C@H]([C@H]1CCCCCN1)NC2=O)c1cc(F)cc(C(F)(F)F)c1` (racemic) [Compound I-2318] displayed a 50% inhibitory concentration (IC50) of 10 to 100 µM.

`C[C@H]([C@@H]1C[C@@H](O)CN1C(=O)Nc1cccc2c1[C@H](c1cc(F)ccc1Cl)NC2=O)C(F)(F)F` (racemic) [Compound I-2341] registered an IC50 of 0.1 to 0.5 µM.

`N[C@]1(C(F)(F)F)CN(C(=O)Nc2cccc3c2[C@@H](c2cc(F)ccc2Cl)NC3=O)c2ccc(F)cc21` (racemic) [Compound I-2471] returned a 50% inhibitory concentration (IC50) of 1 to 10 µM.

With `Cc1ccccc1[C@@H]1NC(=O)c2nccc(NC(=O)N3C[C@H](C)c4ccccc43)c21` (single isomer, unassigned) [Compound I-300], the IC50 fell in the range of 0.1 to 0.5 µM.

`Cc1ccccc1[C@H]1NC(=O)c2nccc(NC(=O)N3C[C@@H](C)c4ccccc43)c21` (single isomer, unassigned) [Compound I-301]: the IC50 is 0.5 to 1 µM.

`Cc1ccccc1[C@@H]1NC(=O)c2nccc(NC(=O)N3C[C@H](C)c4ccccc43)c21` (single isomer, unassigned) [Compound I-302] displayed an IC50 of 0.5 to 1 µM.

In the case of `Cc1ccccc1[C@@H]1NC(=O)c2nccc(NC(=O)N3C[C@@H](C)c4ccccc43)c21` (single isomer, unassigned) [Compound I-303], the IC50 was 10 to 100 µM.

Regarding `C[C@]1(O)C[C@@H](Nc2cc(NC(=O)c3cc(F)cc(C(F)(F)F)c3)c3c(n2)C(=O)NC3c2cc(F)ccc2Cl)C1` (single isomer, unassigned) [Compound I-329], the IC50 is 0.1 to 0.5 µM.

Compound `CN1C[C@H](Nc2cc(NC(=O)c3cc(F)cc(C(F)(F)F)c3)c3c(c2)C(=O)NC3c2cc(F)ccc2Cl)CC1=O` (single isomer, unassigned) [Compound I-343] came in with an IC50 of no more than 0.1 µM.

`CN1C[C@@H](Nc2cc(NC(=O)c3cc(F)cc(C(F)(F)F)c3)c3c(c2)C(=O)NC3c2cc(F)ccc2Cl)CC1=O` (single isomer, unassigned) [Compound I-375] gave an IC50 of no more than 0.1 µM.

The compound `O=C(Nc1cc(N[C@H]2C[C@H](F)C2)cc2c1C(c1cc(F)ccc1Cl)NC2=O)c1cc(F)cc(C(F)(F)F)c1` (single isomer, unassigned) [Compound I-540] gave an IC50 of no more than 0.1 µM.

With `O=C(Nc1cc(N[C@H]2C[C@@H](F)C2)cc2c1C(c1cc(F)ccc1Cl)NC2=O)c1cc(F)cc(C(F)(F)F)c1` (single isomer, unassigned) [Compound I-541], the half-inhibitory concentration (IC50) was no more than 0.1 µM.

In the case of `O=C(Nc1cc(N[C@H]2C[C@H](O)C2)cc2c1C(c1cc(F)ccc1Cl)NC2=O)c1cc(F)cc(C(F)(F)F)c1` (single isomer, unassigned) [Compound I-609], the IC50 was no more than 0.1 µM.

In the case of `Cn1cc(-c2cc(NC(=O)c3cc(F)cc(C(F)(F)F)c3)c3c(c2)C(=O)N[C@@H]3c2cc(F)ccc2Cl)ccc1=O` (single isomer, unassigned) [Compound I-701], the half-maximal inhibitory concentration (IC50) lay in the range of 0.5 to 1 µM.

For `Cn1cc(-c2cc(NC(=O)c3cc(F)cc(C(F)(F)F)c3)c3c(c2)C(=O)N[C@H]3c2cc(F)ccc2Cl)ccc1=O` (single isomer, unassigned) [Compound I-702], the IC50 was no more than 0.1 µM.

`N#Cc1cc(NC(=O)c2cc(F)cc(C(F)(F)F)c2)c2c(c1)C(=O)N[C@@H]2c1cc(F)ccc1Cl` (single isomer, unassigned) [Compound I-770]: the IC50 is no more than 0.1 µM.

In turn, `N#Cc1cc(NC(=O)c2cc(F)cc(C(F)(F)F)c2)c2c(c1)C(=O)N[C@H]2c1cc(F)ccc1Cl` (single isomer, unassigned) [Compound I-771] yielded an IC50 of no more than 0.1 µM.

`COC1CC(Nc2cc(NC(=O)c3cc(F)cc(C(F)(F)F)c3)c3c(c2)C(=O)NC3c2cc(F)ccc2Cl)C1` (single isomer, unassigned) [Compound I-781] showed a half-inhibitory concentration (IC50) of no more than 0.1 µM.

`O=C1NC(c2cc(F)ccc2Cl)c2c(NC(=O)[C@@H](O)c3cc(F)cc(F)c3)cc(Br)cc21` (single isomer, unassigned) [Compound I-803] returned an IC50 of 10 to 100 µM.

In turn, `O=C1NC(c2cc(F)ccc2Cl)c2c(NC(=O)[C@H](O)c3cc(F)cc(F)c3)cc(Br)cc21` (single isomer, unassigned) [Compound I-804] returned a half-inhibitory concentration (IC50) of 10 to 100 µM.

The compound `O=C(Nc1cc(-c2ccc3ncnn3c2)cc2c1[C@@H](c1cc(F)ccc1Cl)NC2=O)c1cc(F)cc(C(F)(F)F)c1` (single isomer, unassigned) [Compound I-943] showed a half-inhibitory concentration (IC50) of 0.5 to 1 µM.

In turn, `Cn1cc(Nc2cc(NC(=O)c3cc(F)cc(C(F)(F)F)c3)c3c(c2)C(=O)N[C@@H]3c2cc(F)ccc2Cl)cn1` (single isomer, unassigned) [Compound I-998] yielded an IC50 of 0.5 to 1 µM.

`O=C(Nc1cc(-c2cnn(C3CC3)c2)cc2c1[C@@H](c1cc(F)ccc1Cl)NC2=O)c1cc(F)cc(C(F)(F)F)c1` (single isomer, unassigned) [Compound I-1021] had an IC50 of 10 to 100 µM.

The compound `N#C[C@H]1C[C@H](c2cc(NC(=O)c3cc(F)cc(C(F)(F)F)c3)c3c(c2)C(=O)N[C@@H]3c2cc(F)ccc2Cl)C1` (single isomer, unassigned) [Compound I-1325] yielded an IC50 of 0.1 to 0.5 µM.

For the compound `N#C[C@H]1C[C@H](c2cc(NC(=O)c3cc(F)cc(C(F)(F)F)c3)c3c(c2)C(=O)N[C@H]3c2cc(F)ccc2Cl)C1` (single isomer, unassigned) [Compound I-1326], the IC50 is no more than 0.1 µM.

As to `N#C[C@H]1C[C@@H](c2cc(NC(=O)c3cc(F)cc(C(F)(F)F)c3)c3c(c2)C(=O)N[C@@H]3c2cc(F)ccc2Cl)C1` (single isomer, unassigned) [Compound I-1327], the IC50 is no more than 0.1 µM.

`N#C[C@H]1C[C@@H](c2cc(NC(=O)c3cc(F)cc(C(F)(F)F)c3)c3c(c2)C(=O)N[C@H]3c2cc(F)ccc2Cl)C1` (single isomer, unassigned) [Compound I-1328] displayed a half-inhibitory concentration (IC50) of 0.1 to 0.5 µM.

Regarding `CS(=O)(=O)N1CCC[C@H]1COc1cc(NC(=O)c2cc(F)cc(C(F)(F)F)c2)c2c(c1)C(=O)NC2c1cc(F)ccc1Cl` (single isomer, unassigned) [Compound I-1375], the IC50 was no more than 0.1 µM.

As to `CS(=O)(=O)N1CCC[C@@H]1COc1cc(NC(=O)c2cc(F)cc(C(F)(F)F)c2)c2c(c1)C(=O)NC2c1cc(F)ccc1Cl` (single isomer, unassigned) [Compound I-1378], the half-inhibitory concentration (IC50) is no more than 0.1 µM.

`N#CC[C@@H](O)c1cc(NC(=O)c2cc(F)cc(C(F)(F)F)c2)c2c(c1)C(=O)N[C@@H]2c1cc(F)ccc1Cl` (single isomer, unassigned) [Compound I-1391] showed an IC50 of 1 to 10 µM.

As for `N#CC[C@H](O)c1cc(NC(=O)c2cc(F)cc(C(F)(F)F)c2)c2c(c1)C(=O)N[C@@H]2c1cc(F)ccc1Cl` (single isomer, unassigned) [Compound I-1392], the IC50 fell in the range of 1 to 10 µM.

Take `N#CC[C@@H](O)c1cc(NC(=O)c2cc(F)cc(C(F)(F)F)c2)c2c(c1)C(=O)N[C@H]2c1cc(F)ccc1Cl` (single isomer, unassigned) [Compound I-1393]: the IC50 was no more than 0.1 µM.

Take `N#CC[C@H](O)c1cc(NC(=O)c2cc(F)cc(C(F)(F)F)c2)c2c(c1)C(=O)N[C@H]2c1cc(F)ccc1Cl` (single isomer, unassigned) [Compound I-1394]: the IC50 is no more than 0.1 µM.

`C[C@@](O)(CC#N)c1cc(NC(=O)c2cc(F)cc(C(F)(F)F)c2)c2c(c1)C(=O)N[C@H]2c1cc(F)ccc1Cl` (single isomer, unassigned) [Compound I-1395] gave an IC50 of no more than 0.1 µM.
